Assay results taken from patent US20250340591A1, “COMPOSITION FOR PREVENTING OR TREATING INFLAMMATORY BOWEL DISEASE CONTAINING NOVEL COMPOUND” (ANYGEN CO., LTD., priority 2021, published 2025).
Square brackets hold non-standard residues; d marks the D form. Ends that are not written are not given here. Peptide text beside a SMILES is read from it. * marks the point of attachment. His(Trt) = N[C@@H](Cc1cn(C(c2ccccc2)(c2ccccc2)c2ccccc2)cn1)C(=O)O; His(τ-CHPh2) = N[C@@H](Cc1cn(C(c2ccccc2)c2ccccc2)cn1)C(=O)O; Biotin = O=C1N[C@H]2[C@H](CS[C@H]2CCCCC(=O)*)N1; dPhe(4-Cl) = N[C@H](Cc1ccc(Cl)cc1)C(=O)O; dPhe(4-Me) = Cc1ccc(C[C@@H](N)C(=O)O)cc1; Benzhydryl = c1ccc(C(c2ccccc2)*)cc1; Decanoyl = CCCCCCCCCC(=O)*; Octanoyl = CCCCCCCC(=O)*; Orn = NCCC[C@H](N)C(=O)O

What was measured:
GPR39 = biological target: T1, GPR39 (Homo sapiens, UniProt O43194); experiment: luciferase assay system (SRE luciferase reporter gene, CV-1 cells expressing GPR39); type: cell-based; design: expressed in transfected cells; host or cells: CV-1 fibroblast cell line (Korea Cell Line Bank), adenoviral transduction at 50 MOI
T1 sequence (O43194 1-453): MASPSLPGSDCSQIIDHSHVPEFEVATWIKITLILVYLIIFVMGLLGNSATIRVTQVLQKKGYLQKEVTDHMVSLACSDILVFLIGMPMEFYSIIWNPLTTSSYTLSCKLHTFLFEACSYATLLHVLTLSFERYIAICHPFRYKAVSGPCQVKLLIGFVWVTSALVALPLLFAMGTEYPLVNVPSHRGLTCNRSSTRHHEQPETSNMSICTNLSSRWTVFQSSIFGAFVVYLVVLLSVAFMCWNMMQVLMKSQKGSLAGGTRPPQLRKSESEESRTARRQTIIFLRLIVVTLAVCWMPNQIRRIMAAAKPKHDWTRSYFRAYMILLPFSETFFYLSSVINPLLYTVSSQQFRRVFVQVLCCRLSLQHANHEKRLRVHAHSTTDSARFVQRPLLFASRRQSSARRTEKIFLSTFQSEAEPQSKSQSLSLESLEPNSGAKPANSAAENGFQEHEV

human GPR39 = biological target: T2, human GPR39 (human, UniProt O43194 1-453); experiment: cell-based or functional assay
T2 sequence (looked up): T1 sequence (O43194 1-453)

[1] = biological target: T3, GPR39 (G protein coupled receptor 39) (UniProt O43194 1-453, limits assumed); experiment: cell-based or functional assay
T3 sequence (looked up): T1 sequence (O43194 1-453)

[2] = biological target: T3, GPR39 (G protein coupled receptor 39); experiment: cell-based or functional assay; remark: listed apart in the source

CCCCCCCC(=O)NCCCC[C@H](NC(=O)[C@@H](N)Cc1cn(C(c2ccccc2)c2ccccc2)cn1)C(=O)N[C@H](Cc1ccc(C)cc1)C(=O)N[C@@H](Cc1ccc(O)cc1)C(N)=O [HKFY-66, N-((S)-5-((S)-2-amino-3-(1-benzhydryl-1H-imidazol-4-yl)propanamido)-6-(((R)-1-(((S)-1-amino-3-(4-hydroxyphenyl)-1-oxopropan-2-yl)amino)-1-oxo-3-(p-tolyl)propan-2-yl)amino)-6-oxohexyl)octanamide] (H-[His(τ-CHPh2)]K(Octanoyl)[dPhe(4-Me)]Y-NH2)
ECmax (−fold induction over basal) (GPR39): 20.2 ± 3.5 fold induction over basal

CCCCCCCC(=O)NCCCC[C@H](NC(=O)[C@@H](N)Cc1cn(C(c2ccccc2)c2ccc(OC)cc2)cn1)C(=O)N[C@@H](Cc1ccccc1)C(=O)N[C@@H](Cc1ccc(O)cc1)C(=O)O (stereo partly drawn) [HKFY-20, N2-(Nt-((4-methoxyphenyl)(phenyl)methyl)-L-histidyl)-N6-octanoyl-L-lysyl-L-phenylalanyl-L-tyrosine]
ECmax (−fold induction over basal) (GPR39): 20.26 ± 2.7 fold induction over basal

CCCCCCCC(=O)NCCCC[C@H](NC(=O)[C@H](Cc1cn(C(c2ccccc2)(c2ccccc2)c2ccccc2)cn1)NC(=O)CCCC[C@@H]1SC[C@@H]2NC(=O)N[C@@H]21)C(=O)N[C@@H](Cc1ccccc1)C(=O)N[C@@H](Cc1ccc(O)cc1)C(=O)O [HKFY-2, N6-octanoyl-N2-(Na-(5-((3aS,4S,6aR)-2-oxohexahydro-1H-thieno[3,4-d]imidazol-4-yl)pentanoyl)-Nt-trityl-L-histidyl)-L-lysyl-L-phenylalanyl-L-tyrosine] (Biotin-[His(Trt)]K(Octanoyl)FY-OH)
ECmax (−fold induction over basal) (GPR39): 15 ± 1.87 fold induction over basal

CCCCCCCC(=O)NCCCC[C@H](NC(=O)[C@@H](N)Cc1cn(C(c2ccccc2)c2ccccc2)cn1)C(=O)N[C@@H](Cc1ccccc1)C(=O)N[C@@H](Cc1ccc(O)cc1)C(=O)O [HKFY-33, N2-(Nt-benzhydryl-L-histidyl)-N6-octanoyl-L-lysyl-L-phenylalanyl-L-tyrosine] (H-[His(τ-CHPh2)]K(Octanoyl)FY-OH)
ECmax (−fold induction over basal) (GPR39): 20 ± 0.57 fold induction over basal

CCCCCCCCCC(=O)NCCCC[C@H](NC(=O)[C@@H](N)Cc1cn(C(c2ccccc2)(c2ccccc2)c2ccccc2)cn1)C(=O)N[C@@H](Cc1ccccc1)C(=O)N[C@@H](Cc1ccc(O)cc1)C(=O)O [HKFY-24, N6-decanoyl-N2-(Nt-trityl-L-histidyl)-L-lysyl-L-phenylalanyl-L-tyrosine] (H-[His(Trt)]K(Decanoyl)FY-OH)
ECmax (−fold induction over basal) (GPR39): 7.03 ± 0.57 fold induction over basal

CCCCCCCC(=O)NCCCC[C@H](NC(=O)[C@@H](N)Cc1cn(C(c2ccccc2)(c2ccccc2)c2ccccc2)cn1)C(=O)N[C@@H](Cc1ccccc1)C(=O)N[C@@H](CO)C(=O)O [HKFY-50, N6-octanoyl-N2-(Nt-trityl-L-histidyl)-L-lysyl-L-phenylalanyl-L-serine] (H-[His(Trt)]K(Octanoyl)FS-OH)
ECmax (−fold induction over basal) (GPR39): 16.2 ± 1.5 fold induction over basal

CCCCCCCC(=O)NCCCC[C@H](NC(=O)[C@@H](N)Cc1cn(C(c2ccccc2)(c2ccccc2)c2ccccc2)cn1)C(=O)N[C@H](Cc1ccc(Cl)cc1)C(=O)N[C@H](Cc1ccc(O)cc1)C(=O)O [HKFY-15, ((R)-2-((S)-2-((S)-2-amino-3-(1-trityl-1H-imidazol-4-yl)propanamido)-6-octanamidohexanamido)-3-(4-chlorophenyl)propanoyl)-D-tyrosine] (H-[His(Trt)]K(Octanoyl)[dPhe(4-Cl)][dY]-OH)
ECmax (−fold induction over basal) (GPR39): 24.7 ± 2.6 fold induction over basal

CCCCCCCC(=O)NCCCC[C@H](NC(=O)[C@@H](N)Cc1cn(Cc2ccc(-c3ccccc3-c3nnn[nH]3)cc2)cn1)C(=O)N[C@H](Cc1ccc(C)cc1)C(=O)N[C@@H](Cc1ccc(O)cc1)C(=O)O [HKFY-77, ((R)-2-((S)-2-((S)-3-(1-((2′-(1H-tetrazol-5-yl)-[1,1′-biphenyl]-4-yl)methyl)-1H-imidazol-4-yl)-2-aminopropanamido)-6-octanamidohexanamido)-3-(p-tolyl)propanoyl)-L-tyrosine]
ECmax (−fold induction over basal) (GPR39): 11.6 ± 2.14 fold induction over basal

CCCCCCCC(=O)NCCC[C@H](NC(=O)[C@@H](N)Cc1cn(C(c2ccccc2)c2ccccc2)cn1)C(=O)N[C@H](Cc1ccc(C)cc1)C(=O)N[C@@H](Cc1ccc(O)cc1)C(=O)O [HKFY-71, ((R)-2-((S)-2-((S)-2-amino-3-(1-benzhydryl-1H-imidazol-4-yl)propanamido)-5-octanamidopentanamido)-3-(p-tolyl)propanoyl)-L-tyrosine] (H-[His(τ-CHPh2)][Orn](Octanoyl)[dPhe(4-Me)]Y-OH)
ECmax (−fold induction over basal) (GPR39): 16.4 ± 2.51 fold induction over basal

CCCCCCCC(=O)NCCCC[C@H](NC(=O)[C@@H](N)Cc1cn([C@H](c2ccccc2)c2ccc(C)cc2)cn1)C(=O)N[C@@H](Cc1ccccc1)C(=O)N[C@@H](Cc1ccc(O)cc1)C(=O)O [HKFY-22, N6-octanoyl-N2-(Nt-((R)-phenyl(p-tolyl)methyl)-L-histidyl)-L-lysyl-L-phenylalanyl-L-tyrosine]
ECmax (−fold induction over basal) (GPR39): 21.3 ± 1.8 fold induction over basal

CCCCCCCC(=O)NCCCC[C@H](N)C(=O)N[C@@H](Cc1ccccc1)C(=O)N[C@@H](Cc1ccc(O)cc1)C(=O)O [HKFY-54, N6-octanoyl-L-lysyl-L-phenylalanyl-L-tyrosine] (H-Lys(Octanoyl)-Phe-Tyr-OH)
ECmax (−fold induction over basal) (GPR39): 7.8 ± 2.5 fold induction over basal

N2-(Nt-(naphthalen-1-ylmethyl)-L-histidyl)-N6-octanoyl-L-lysyl-L-phenylalanyl-L-tyrosine (H(naphthalen‑1‑ylmethyl)K(Octanoyl)FY-OH) [HKFY-10]
ECmax (−fold induction over basal) (GPR39): 14 ± 2.12 fold induction over basal
EC50 (GPR39; CV-1 cells, GPR39 and SRE luciferase adenovirus, 6 hours treatment): 46500 ± 1100 nM

B1: HKFY-34 (peptide)
peptide: H(Benzhydryl)K(Octanoyl)[dPhe(4-Me)]Y
EC50; Ca2+ influx assay (human GPR39): 2.7 nM
ECmax; Ca2+ influx assay (human GPR39): 2.4 -fold induction over basal
EC50; Reporter gene assay [1]: 6.7 nM
ECmax; Reporter gene assay [1]: 22.4 -fold induction over basal
EC50; SRE-luciferase reporter [2]: 7 nM
ECmax; SRE-luciferase reporter [2]: 22.4 -fold induction over basal
